Laboratory results: patent US20190031618A1, “BENZIMIDAZOLE DERIVATIVES USEFUL AS CB-1 INVERSE AGONISTS” (Janssen Pharmaceutica NV, priority 2015, published 2019)

How the values were obtained:
[1] = biological target: Human CB2R (Cannabinoid receptor 2) (Homo sapiens, UniProt P34972); assay: CB-2 in vitro cAMP (HTRF) assay; assay type: cell-based; conditions: HEK cells, cAMP HTRF, 250 nM forskolin; mean where tested more than once; read-out: CB2 HEK_cAMP EC50
Text: (§1) CB1 and CB2 receptors are Gi-coupled GPCR. Activation of CB1 and CB2 receptors results in a decrease in cAMP production. An inverse agonist of the CB1 or CB2 receptor results in the opposite effect, an increase of cAMP production. The principle of this assay is based on HTRF® technology (Homogeneous Time-Resolved Fluorescence). The method is a competitive immunoassay between native cAMP produced by cells and the cAMP labeled with the fluorophore d2. The tracer binding is quantified by a Mab anti-cAMP labeled with Eu3+TBP-NHS Cryptate (supplied as part of the assay kit). The specific signal (i.e. energy transfer) is inversely proportional to the concentration of cAMP in the standard or sample.
Human CB1R (Cannabinoid receptor 1) was stably transfected in HEK-293 cells (DiscoveRx, cat: 93-0200C1). Human CB2R (Cannabinoid receptor 2) was stably transfected in HEK-293 cells (DiscoveRx, cat: 93-0201C1). Cell cultures were maintained in media: DMEM (Invitrogen Cat#12430-054) supplemented with 10% HI FBS (Invitrogen Cat#16140-071), 1% L-glutamine (Invitrogen Cat#25030-081), 0.2 mg/ml Hygromycin B (Invitrogen Cat#10687-010), 600 μg/mL G418 (Invitrogen Cat#10131-035), and 1× Penn/Strep (Invitrogen 15140-122). After cell expansion, aliquots were cryo-stored in media containing 5% DMSO (Pierce Cat#20684).
(§2) One day prior to experiments media was warmed to 37° C. and the cryo-stored cells were thawed in a 37° C. water bath. The cells were then added to media (10× volume) and the mixture was centrifuged at 1000 RPM for 5 min. The supernate was removed and the cells were re-suspended in media. A sample of the cell suspension was evaluated on a Cedex XS automated cell counter (Innovatis Systems) to determine viable cells/ml. Additional media was added to the cells to achieve a final cell density of 4E5 cells/mL. The cells were then plated into 384 well PDL white solid bottom plates (Greiner, Cat#781945) at 20 μL per well using a Multidrop (Thermo Scientific). Cells were removed from Row P (location of cAMP standards). Two columns of cells were plated into a clear bottom 384 well PDL coated plate (Greiner, Cat#781944) to view confluence the day of the assay. The cell plates were lidded and stored for 15 minutes in a hood, then transferred to an incubator (37° C., 5% CO2, 95% humidity) overnight.
DMSO was added to all wells of 384 well V bottom polystyrene plate (Greiner, Cat#781280) except to columns 1 and 13, rows O and P and wells M13-M23 and N13-N23. Test compounds (60 μL, 10 mM) were added to Column 1 and 13 (A1 through N1 and A13 through L13). Test compounds were serially diluted 1/3 by transferring and mixing 20 μl sample with 40 μL DMSO.
DMSO (40 μL) was added to wells of 384 well V bottom polystyrene plate: O2 through O11, M14 through M23, N14 through N23, and O14 through O23. AM630 (also known as [6-iodo-2-methyl-1-[2-(4-morpholinyl)ethyl]-1H-indol-3-yl](4-methoxyphenyl)-methanone, Cayman Chemical, Cat#10006974) (60 μL, 10 mM) was added to O1; and 1-(2,4-dichlorophenyl)-7-[(4-fluorophenyl)methylene]-4,5,6,7-tetrahydro-N-1-piperidinyl-1H-benzimidazole-3-carboxamide (60 μL, 10 mM) was added to N13. The control was serially diluted 1/3 by transferring and mixing 20 μl sample with 40 μL DMSO. This process resulted 11 doses per control, 10 mM to […].
Cells plated the day prior to the assay in clear bottom plates were viewed on an inverse microscope to ensure confluency in the range of 60-75%. […]

[2] = biological target: Human CB1R (Cannabinoid receptor 1) (Homo sapiens, UniProt P21554); assay: CB-1 in vitro cAMP (HTRF) assay; assay type: cell-based; conditions: HEK cells, cAMP HTRF, 250 nM forskolin; mean where tested more than once; read-out: CB1 HEK_cAMP EC50
Text: as §1
Human CB1R (Cannabinoid receptor 1) was stably transfected in HEK-293 cells (DiscoveRx, cat: 93-0200C1). Human CB2R (Cannabinoid receptor 2) was stably transfected in HEK-293 cells (DiscoveRx, cat: 93-0201C1).
as §2, with “The cells were then plated into 384 well PDL white solid bottom plates (Greiner, Cat#781945) at 20 μL per well using a Multidrop (Thermo Scientific).” left out, “Two columns of cells were plated into a clear bottom 384 well PDL coated plate (Greiner, Cat#781944) to view confluence the day of the assay.” left out
Test compounds (60 μL, 10 mM) were added to Column 1 and 13 (A1 through N1 and A13 through L13). Test compounds were serially diluted 1/3 by transferring and mixing 20 μl sample with 40 μL DMSO.
DMSO (40 μL) was added to wells of 384 well V bottom polystyrene plate: O2 through O11, M14 through M23, N14 through N23, and O14 through O23. […] The control was serially diluted 1/3 by transferring and mixing 20 μl sample with 40 μL DMSO. This process resulted 11 doses per control, 10 mM to 0.5 μM.
Cells plated the day prior to the assay in clear bottom plates were viewed on an inverse microscope to ensure confluency in the range of 60-75%.
A FLEXDROP (Perkin Elmer) was cleaned with ethanol then water, and primed with Buffer 2. A 384 well V bottom polypropylene plate containing d2 labelled cAMP and a second 384 well V bottom polypropylene plate containing anti-cAMP was prepared (50 μl per well). Media as “dumped” from the cell plate and 30 μL Buffer 1 was added to each well using a Multidrop. The content of the cell plate was again “dumped” and 10 μL Buffer 2 was added to each well using a Flexdrop. […] The cell plate was mixed (Speed 6, Lab-Line Instruments Titer Plate Shaker) and centrifuged (1000 RPMs, 1 min). […] The cell plate was again mixed (speed 6) and centrifuged (1000 RPMs, 1 min). The cell plate was incubated for 30 minutes at room temperature (˜27° C.). The contents of row P were removed and the cAMP standard dilutions were added in duplicate to Row P (P1-12 and P13-24). After incubation, 6 μL d2 labelled cAMP and 6 μL of Anti-cAMP were added to all wells of the cell plate using a BioMek FX (Beckman Coulter). The cell plate was again mixed (speed 6) and centrifuged (1000 RPMs, 1 min) and was incubated for 60 minutes in the dark at room Temp (˜27° C.).
After this final incubation, the cell plate was read in HTRF mode (fluorescence at 665 nm and 620 nm) on an Envision plate Reader (Perkin Elmer). The Envision reader outputs a ratio of channel 1/channel 2 fluorescence×10,000 (Normalized signal (NS)). Amount of cAMP in nM was calculated for each well (based on NS) from a cAMP standard curve located on each plate (at P1-12 and P13-24). EC50 values were determined from a 4-point fit (Hill equation) of a single 11-point compound dosing. Hill slope was fixed at 1.0.

Sequence of Human CB1R (Cannabinoid receptor 1) (P21554 whole entry): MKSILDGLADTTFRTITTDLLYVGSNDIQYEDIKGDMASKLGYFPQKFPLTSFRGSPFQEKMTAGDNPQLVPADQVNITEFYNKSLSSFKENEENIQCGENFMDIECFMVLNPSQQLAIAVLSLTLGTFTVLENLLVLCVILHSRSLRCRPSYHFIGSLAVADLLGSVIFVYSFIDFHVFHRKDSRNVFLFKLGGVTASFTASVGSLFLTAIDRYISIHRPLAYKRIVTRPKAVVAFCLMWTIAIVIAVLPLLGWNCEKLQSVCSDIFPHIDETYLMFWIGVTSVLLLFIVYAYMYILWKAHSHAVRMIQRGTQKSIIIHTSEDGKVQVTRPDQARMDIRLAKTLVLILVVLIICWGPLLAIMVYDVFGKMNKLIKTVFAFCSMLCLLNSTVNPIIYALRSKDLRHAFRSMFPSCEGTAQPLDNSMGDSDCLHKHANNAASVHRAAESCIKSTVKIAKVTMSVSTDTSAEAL
Sequence of Human CB2R (Cannabinoid receptor 2) (P34972 whole entry): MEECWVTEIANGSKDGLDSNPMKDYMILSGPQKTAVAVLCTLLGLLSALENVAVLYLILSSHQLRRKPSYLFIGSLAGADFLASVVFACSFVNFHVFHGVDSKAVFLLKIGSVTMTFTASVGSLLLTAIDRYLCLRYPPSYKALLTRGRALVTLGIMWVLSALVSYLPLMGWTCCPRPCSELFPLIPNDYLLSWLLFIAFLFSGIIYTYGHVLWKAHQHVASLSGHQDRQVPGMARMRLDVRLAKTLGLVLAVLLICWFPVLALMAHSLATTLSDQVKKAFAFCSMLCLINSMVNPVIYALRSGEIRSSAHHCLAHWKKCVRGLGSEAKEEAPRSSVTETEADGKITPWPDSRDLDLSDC

Row | SMILES | EC50 [1] | EC50 [2]
1 | O=C(O)CN1CCC(n2c(C3CC3)nc3ccc(C(c4ccc(Cl)cc4)c4ccc(Cl)cc4)cc32)CC1 [Example 63] | > 21 µM | > 10 µM
2 | NC(=O)c1cncc(CN2CCC(n3c(C4CC4)nc4ccc(C(c5ccc(Cl)cc5)c5ccc(Cl)cc5)cc43)CC2)c1 [Example 121] | 7.97 µM | 0.0051 µM
3 | Oc1cccc(-n2c(C3CC3)nc3ccc(C(c4ccc(Cl)cc4)c4ccc(Cl)cc4)cc32)c1 [Example 180] | > 10 µM | 0.0171 µM
4 | COc1ccc(S(=O)(=O)N2CCC(n3c(C4CC4)nc4ccc(C(c5ccc(Cl)cc5)c5ccc(Cl)cc5)cc43)CC2)cc1F [Example 225] | > 10 µM | 0.0415 µM
5 | C=C(CO)c1nc2ccc(C(c3ccc(Cl)cc3)c3ccc(Cl)cc3)cc2n1C1CCN(S(=O)(=O)C(F)(F)F)CC1 [Example 118] | > 10 µM | 0.098 µM
6 | CCOC(=O)N1CCC(n2cnc3ccc(C(c4ccc(Cl)cc4)c4nccs4)cc32)CC1 (centres unmarked) [Example 448] | > 10 µM | 0.1 µM
7 | O=C(O)c1cccc(CN2CCC(n3c(C4CC4)nc4ccc(C(c5ccc(Cl)cc5)c5ccc(Cl)cc5)cc43)CC2)c1F [Example 85] | 8.1 µM | 0.0174 µM
8 | COCC(c1ccc(Cl)cc1)(c1ccc(Cl)cc1)c1ccc2nc(C3CC3)n(C3CCN(S(=O)(=O)c4ccc(C(=O)O)c(Cl)c4)CC3)c2c1 [Example 178] | > 10 µM | 0.0675 µM
9 | CCOC(=O)N1CCC(n2c(C(F)(F)F)nc3ccc(C(c4ccc(Cl)cc4)c4nccs4)cc32)CC1 (centres unmarked) [Example 415] | > 10 µM | > 10 µM
10 | O=S(=O)(c1ccc(F)cc1)N1CCC(n2c(C3CC3)nc3ccc(C(c4ccc(Cl)cc4)c4ccc(Cl)cc4)cc32)CC1 [Example 282] | > 10 µM | 0.0073 µM
11 | O=S(=O)(N1CCC(n2c(-c3ccc(Cl)cc3)nc3ccc(C(c4ccc(Cl)cc4)c4nccs4)cc32)CC1)C(F)(F)F (centres unmarked) [Example 394] | > 10 µM | 4.84 µM
12 | O=C(O)COc1ccc(S(=O)(=O)N2CCC(n3c(C4CC4)nc4ccc(C(c5ccc(Cl)cc5)c5ccc(Cl)cc5)cc43)CC2)cc1 [Example 256] | > 10 µM | 0.129 µM
13 | O=S(=O)(CCN1CCNCC1)N1CCC(n2c(C3CC3)nc3ccc(C(c4ccc(Cl)cc4)c4ccc(Cl)cc4)cc32)CC1 [Example 45] | > 42 µM | 0.593 µM
14 | O=C(O)C(c1ccc(Cl)cc1)(c1ccc(Cl)cc1)c1ccc2nc(C3CC3)n(C3CCN(S(=O)(=O)C(F)(F)F)CC3)c2c1 [Example 267] | > 10 µM | 0.007 µM
15 | O=C(O)CCC(=O)N1CCC(n2c(C3CC3)nc3ccc(C(c4ccc(Cl)cc4)c4ccc(Cl)cc4)cc32)CC1 [Example 269] | > 10 µM | 1.03 µM
16 | NC(=O)c1cccc(CN2CCC(n3c(C4CC4)nc4ccc(C(c5ccc(Cl)cc5)c5ccc(Cl)cc5)cc43)CC2)c1 [Example 141] | > 10 µM | 0.0033 µM
17 | NC(=O)CC(=O)N1CCC(n2c(C3CC3)nc3ccc(C(c4ccc(Cl)cc4)c4ccc(Cl)cc4)cc32)CC1 [Example 278] | > 10 µM | 0.0505 µM

Other lines, results leading:

Row | EC50 [1] | EC50 [2] | SMILES
18 | 5.73 µM | 0.0367 µM | O=C(NCCO)c1cccc(S(=O)(=O)N2CCC(n3c(C4CC4)nc4ccc(C(c5ccc(Cl)cc5)c5ccc(Cl)cc5)cc43)CC2)c1 [Example 205]
19 | > 10 µM | 0.0532 µM | NC(=O)[C@H]1CC[C@H](n2c(C3CC3)nc3ccc(C(c4ccc(Cl)cc4)c4ccc(Cl)cc4)cc32)CC1 [Example 135]
20 | > 10 µM | 0.0253 µM | CNC(=O)c1cccc(S(=O)(=O)N2CCC(n3c(C4CC4)nc4ccc(C(c5ccc(Cl)cc5)c5ccc(Cl)cc5)cc43)CC2)c1 [Example 186]
21 | 0.869 µM | 0.0854 µM | COC(=O)c1ccc(OCCn2c(C3CC3)nc3ccc(C(c4ccc(Cl)cc4)c4ccc(Cl)cc4)cc32)cc1 [Example 36]
22 | 0.73 µM | 0.0058 µM | COc1cc(S(=O)(=O)N2CCC(n3c(C4CC4)nc4ccc(C(c5ccc(Cl)cc5)c5ccc(Cl)cc5)cc43)CC2)ccc1C(=O)O [Example 251]
23 | 2.85 µM | 0.0114 µM | O=C(O)c1ccc(N2CCC(Cn3c(C4CC4)nc4ccc(C(c5ccc(Cl)cc5)c5ccc(Cl)cc5)cc43)CC2)cc1 [Example 1]
24 | 5.2 µM | 0.0034 µM | FC(F)(F)c1ccc(CCn2c(C3CC3)nc3ccc(C(c4ccc(Cl)cc4)c4ccc(Cl)cc4)cc32)cc1 [Example 309]
25 | 3.31 µM | 0.103 µM | COC(=O)c1cccc(OCCn2c(C3CC3)nc3ccc(C(c4ccc(Cl)cc4)c4ccc(Cl)cc4)cc32)c1 [Example 26]
26 | 4 µM | 0.0597 µM | Clc1ccc(CCn2c(C3CC3)nc3ccc(C(c4ccc(Cl)cc4)c4nccs4)cc32)cc1 (centres unmarked) [Example 338]
27 | 3.5 µM | 0.812 µM | NC(=O)c1ccc(Cn2c(C3CC3)nc3ccc(C(c4ccc(Cl)cc4)c4ccc(Cl)cc4)cc32)cc1 [Example 133]
28 | 5.05 µM | 0.0225 µM | O=C(O)c1cc(S(=O)(=O)N2CCC(n3c(C4CC4)nc4ccc(C(c5ccc(Cl)cc5)c5ccc(Cl)cc5)cc43)CC2)ccc1Cl [Example 214]
